How the values were obtained:
Type in all cases: cell-based
[1] = tested on: COLO 205; assay: MTT cytotoxicity test, COLO 205; settings: 24 h
Text: (§1) In this test, […] present in the cells converts the soluble tetrazolium salt (3-4,5-dimethylthiazol-2-yl)-2,5-diphenyltetrazolium bromide) into a reduced form. The reaction yields water-insoluble purple crystalline formazan. The number of crystals formed depends on the enzyme activity so that it is directly proportional to the number of viable cells in the sample. Spectrophotometric measurement requires the use of an organic solvent to dissolve the crystals obtained (isopropanol). The change in colour intensity is measured by spectrophotometry at 570 nm wavelength. The test was performed for a number of dilutions (9) of nanoparticle solutions containing the tested anthracycline. The baseline concentration of nanoparticles for MTT tests was 2.5 mg of nanoparticles/ml. […] The study was also performed for drug-free nanoparticles (the carrier itself was obtained similarly to the nanoparticles with the drug). Cells not exposed to toxic substances were used as a control for toxicity studies.
(§2) After reaching 85-90% confluence, the cells were trypsinised using a 0.25% trypsin solution. The cells were then centrifuged (1200 rpm, 5 min.) and suspended in a culture medium suitable for a particular cell line. […] The cells were plated at a concentration of 1000 cells/100 μl of medium per culture well (96-well plates). The prepared plates were incubated (37° C./5% CO2/22 h to 26 h). Subsequently, the culture medium was replaced with a fresh one (100 μl) containing the appropriate concentration of the tested nanoparticles and set aside for 24 h (37° C./5% CO2). After the lapse of the test time, the medium was removed and replaced with 50 μl of an MTT reagent solution at a concentration of 1 mg/ml. The plate was incubated for 2 hours (37° C./5% CO2). Subsequently, the MTT solution was removed, and 100 μl of isopropanol was added. […] The mean value of absorbance read OD570 of the cells not exposed to a toxic agent (control) should be above 0.7 [see literature item 206].
(§3) A decrease in the number of viable cells causes a decrease in metabolic activity in the sample. This reduction directly correlates with the amount of blue and purple formazan formed, monitored basing on the optical density at 570 nm. The following equation (C.1) is used to calculate viability reduction compared to control:
(§4) where: • OD570e is the mean value of the measured absorbance of the test samples; • OD570b is the mean value of the measured absorbance of the control.
(§5) The results obtained were statistically analysed using the Dixon Q test.

[2] = tested on: ACHN; assay: MTT cytotoxicity test, ACHN; settings: 24 h
Text: as §1, §2, §3, §4, §5

[3] = tested on: PANC-1; assay: MTT cytotoxicity test, PANC-1; settings: 24 h
Text: as §1, §2, §3, §4, §5

[4] = tested on: HeLa cell line; assay: MTT cytotoxicity test, HeLa; settings: 24 h
Text: (§6) In this test, […] present in the cells converts the soluble tetrazolium salt (3-4,5-dimethylthiazol-2-yl)-2,5-diphenyltetrazolium bromide) into a reduced form. The reaction yields water-insoluble purple crystalline formazan. The number of crystals formed depends on the enzyme activity so that it is directly proportional to the number of viable cells in the sample. Spectrophotometric measurement requires the use of an organic solvent to dissolve the crystals obtained (isopropanol). The change in colour intensity is measured by spectrophotometry at 570 nm wavelength. The test was performed for a number of dilutions (9) of nanoparticle solutions containing the tested anthracycline. The baseline concentration of nanoparticles for MTT tests was 2.5 mg of nanoparticles/ml. The results were compared to cytotoxicity results obtained for pure drugs with equimolar drug concentration (equal to the concentration encapsulated in nanoparticles). The study was also performed for drug-free nanoparticles (the carrier itself was obtained similarly to the nanoparticles with the drug). Cells not exposed to toxic substances were used as a control for toxicity studies.
(§7) After reaching 85-90% confluence, the cells were trypsinised using a 0.25% trypsin solution. The cells were then centrifuged (1200 rpm, 5 min.) and suspended in a culture medium suitable for a particular cell line. […] The cells were plated at a concentration of 1000 cells/100 μl of medium per culture well (96-well plates). The prepared plates were incubated (37° C./5% CO2/22 h to 26 h). Subsequently, the culture medium was replaced with a fresh one (100 μl) containing the appropriate concentration of the tested nanoparticles and set aside for 24 h (37° C./5% CO2). After the lapse of the test time, the medium was removed and replaced with 50 μl of an MTT reagent solution at a concentration of 1 mg/ml. The plate was incubated for 2 hours (37° C./5% CO2). Subsequently, the MTT solution was removed, and 100 μl of isopropanol was added. After shaking the plate on the shaker for 2 minutes, the results for 570 nm wavelength were read (reference value of 650 nm). The mean value of absorbance read OD570 of the cells not exposed to a toxic agent (control) should be above 0.7 [see literature item 206].
as §3, §4, §5

[5] = MTT cytotoxicity test, HeLa; settings: human, HeLa cells
Text: as §6, §7, §3, §4, §5

[6] = tested on: AU565; assay: MTT cytotoxicity test, AU565; settings: 24 h
Text: as §1, §2, §3, §4, §5

[7] = tested on: A549; assay: MTT cytotoxicity test, A549; settings: 24 h
Text: as §1, §2, §3, §4, §5

[8] = 1.25E+04 ng/ml NPs (pure drug equimolar)
[9] = 1.25E+05 ng/ml NPs (pure drug equimolar)
[10] = 1.25E+06 ng/ml NPs (pure drug equimolar)
[11] = 2.50E+04 ng/ml NPs (pure drug equimolar)
[12] = 2.50E+05 ng/ml NPs (pure drug equimolar)
[13] = 2.50E+06 ng/ml NPs (pure drug equimolar)
[14] = 5.00E+03 ng/ml NPs (pure drug equimolar)
[15] = 5.00E+04 ng/ml NPs (pure drug equimolar)
[16] = 5.00E+05 ng/ml NPs (pure drug equimolar)

COc1cccc2c1C(=O)c1c(O)c3c(c(O)c1C2=O)C[C@@](O)(C(=O)CO)C[C@@H]3O[C@H]1C[C@H](N)[C@@H](O)[C@H](C)O1 [Epi, epirubicin]
Average viability ([1]; Colo205, 1.25E+04 ng/ml NPs (pure drug equimolar)): 63.431%
Average viability ([1]; Colo205, 1.25E+05 ng/ml NPs (pure drug equimolar)): 55.748%
Average viability ([1]; Colo205, 1.25E+06 ng/ml NPs (pure drug equimolar)): 5.063%
Average viability ([1]; Colo205, 2.50E+04 ng/ml NPs (pure drug equimolar)): 66.212%
Average viability ([1]; Colo205, 2.50E+05 ng/ml NPs (pure drug equimolar)): 49.549%
Average viability ([1]; Colo205, 2.50E+06 ng/ml NPs (pure drug equimolar)): 2.239%
Average viability ([1]; Colo205, 5.00E+03 ng/ml NPs (pure drug equimolar)): 83.936%
Average viability ([1]; Colo205, 5.00E+04 ng/ml NPs (pure drug equimolar)): 61.427%
Average viability ([1]; Colo205, 5.00E+05 ng/ml NPs (pure drug equimolar)): 23.946%
Average viability [2, 8]: 65.301%
Average viability [2, 9]: 63.237%
Average viability [2, 10]: 46.66%
Average viability [2, 11]: 63.713%
Average viability [2, 12]: 60.112%
Average viability [2, 13]: 32.352%
Average viability [2, 14]: 81.178%
Average viability [2, 15]: 59.828%
Average viability [2, 16]: 50.916%
Average viability ([3]; PANC1, 1.25E+04 ng/ml NPs (pure drug equimolar)): 94.813%
Average viability ([3]; PANC1, 1.25E+05 ng/ml NPs (pure drug equimolar)): 82.872%
Average viability ([3]; PANC1, 1.25E+06 ng/ml NPs (pure drug equimolar)): 27.965%
Average viability ([3]; PANC1, 2.50E+04 ng/ml NPs (pure drug equimolar)): 99.155%
Average viability ([3]; PANC1, 2.50E+05 ng/ml NPs (pure drug equimolar)): 79.499%
Average viability ([3]; PANC1, 2.50E+06 ng/ml NPs (pure drug equimolar)): 5.339%
Average viability ([3]; PANC1, 5.00E+03 ng/ml NPs (pure drug equimolar)): 97.954%
Average viability ([3]; PANC1, 5.00E+05 ng/ml NPs (pure drug equimolar)): 54.929%
Average viability [4, 8]: 98.38%
Average viability [4, 10]: 3.6%
Average viability [4, 12]: 14.93%
Average viability [4, 13]: 4.21%
Average viability [4, 14]: 100.18%
Average viability [4, 16]: 7.96%
viability at 24 h, 125000 ng/ml NPs (pure drug equimolar) [5, 9]: 12.7%
viability at 24 h, 25000 ng/ml NPs (pure drug equimolar) [5, 11]: 72.8%
viability at 24 h, 50000 ng/ml NPs (pure drug equimolar) [5, 15]: 17%
Average viability ([6]; AU565, 1.25E+04 ng/ml NPs (pure drug equimolar)): 66.48%
Average viability ([6]; AU565, 1.25E+05 ng/ml NPs (pure drug equimolar)): 48.38%
Average viability ([6]; AU565, 2.50E+04 ng/ml NPs (pure drug equimolar)): 66.439%
Average viability ([6]; AU565, 2.50E+05 ng/ml NPs (pure drug equimolar)): 29.222%
Average viability ([6]; AU565, 2.50E+06 ng/ml NPs (pure drug equimolar)): 1.822%
Average viability ([6]; AU565, 5.00E+03 ng/ml NPs (pure drug equimolar)): 84.738%
Average viability ([6]; AU565, 5.00E+04 ng/ml NPs (pure drug equimolar)): 48.052%
Average viability ([6]; AU565, 5.00E+05 ng/ml NPs (pure drug equimolar)): 11.723%
Average viability ([7]; A549, 1.25E+04 ng/ml NPs (pure drug equimolar)): 95.631%
Average viability ([7]; A549, 1.25E+05 ng/ml NPs (pure drug equimolar)): 83.913%
Average viability ([7]; A549, 1.25E+06 ng/ml NPs (pure drug equimolar)): 29.508%
Average viability ([7]; A549, 2.50E+04 ng/ml NPs (pure drug equimolar)): 88.608%
Average viability ([7]; A549, 2.50E+05 ng/ml NPs (pure drug equimolar)): 75.153%
Average viability ([7]; A549, 2.50E+06 ng/ml NPs (pure drug equimolar)): 23.423%
Average viability ([7]; A549, 5.00E+04 ng/ml NPs (pure drug equimolar)): 74.693%

— patent publication US20210052616A1, “ANTHRACYCLINE ENCAPSULATED WITH A POLYSACCHARIDE FOR USE IN THE TREATMENT OF TUMOURS” (NANOVELOS S.A, priority 2018, published 2021)
